Data as given in ChEMBL document CHEMBL1150977, “A quantitative analysis of kinase inhibitor selectivity” (Nat Biotechnol, 2008).

Molecular target: 5'-AMP-activated protein kinase catalytic subunit alpha-2 (Homo sapiens, UniProt P54646)
Sequence (P54646 whole entry): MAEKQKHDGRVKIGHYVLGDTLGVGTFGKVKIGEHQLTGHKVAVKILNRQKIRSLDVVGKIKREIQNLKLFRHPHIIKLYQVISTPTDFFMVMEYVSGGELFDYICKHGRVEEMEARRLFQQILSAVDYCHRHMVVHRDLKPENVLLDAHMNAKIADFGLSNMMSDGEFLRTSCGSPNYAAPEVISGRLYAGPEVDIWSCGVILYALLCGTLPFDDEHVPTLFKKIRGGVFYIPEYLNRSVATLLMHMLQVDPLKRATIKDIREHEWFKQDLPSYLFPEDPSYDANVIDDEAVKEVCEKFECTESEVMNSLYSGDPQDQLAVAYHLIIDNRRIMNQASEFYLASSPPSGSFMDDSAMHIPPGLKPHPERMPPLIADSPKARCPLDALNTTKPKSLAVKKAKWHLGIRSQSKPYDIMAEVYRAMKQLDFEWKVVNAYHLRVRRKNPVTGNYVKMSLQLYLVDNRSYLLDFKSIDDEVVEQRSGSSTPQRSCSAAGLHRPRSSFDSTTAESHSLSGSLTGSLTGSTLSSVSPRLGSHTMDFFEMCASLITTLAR

Row | SMILES | Kd [µM]
1 | CCOc1cc2ncc(C#N)c(Nc3ccc(F)c(Cl)c3)c2cc1NC(=O)/C=C/CN(C)C [PELITINIB] | > 10
2 | Oc1ccc(-c2nc(-c3ccncc3)c(-c3ccc(F)cc3)[nH]2)cc1 [SB-202190] | > 10
3 | COCC(=O)NC/C=C/c1ccc2ncnc(Nc3ccc(Oc4ccc(C)nc4)c(C)c3)c2c1 [CP-724714] | > 10

Molecular target: Cyclin-dependent kinase 5 (Homo sapiens, UniProt Q00535)
Sequence (Q00535 whole entry): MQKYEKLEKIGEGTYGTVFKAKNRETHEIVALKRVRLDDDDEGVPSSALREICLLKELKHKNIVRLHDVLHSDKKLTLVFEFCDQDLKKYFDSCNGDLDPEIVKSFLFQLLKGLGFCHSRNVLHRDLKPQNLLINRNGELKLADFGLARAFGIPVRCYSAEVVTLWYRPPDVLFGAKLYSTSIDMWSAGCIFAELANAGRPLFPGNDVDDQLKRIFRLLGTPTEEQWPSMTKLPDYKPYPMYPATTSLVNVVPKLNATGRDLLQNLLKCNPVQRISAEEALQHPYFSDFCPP

Row | SMILES | Kd [µM]
4 | CCOc1cc2ncc(C#N)c(Nc3ccc(F)c(Cl)c3)c2cc1NC(=O)/C=C/CN(C)C [PELITINIB] | > 10
5 | Oc1ccc(-c2nc(-c3ccncc3)c(-c3ccc(F)cc3)[nH]2)cc1 [SB-202190] | > 10
6 | COCC(=O)NC/C=C/c1ccc2ncnc(Nc3ccc(Oc4ccc(C)nc4)c(C)c3)c2c1 [CP-724714] | > 10

Molecular target: Dual specificity protein kinase CLK1 (Homo sapiens, UniProt P49759)

Row | SMILES | Kd [µM]
7 | Oc1ccc(-c2nc(-c3ccncc3)c(-c3ccc(F)cc3)[nH]2)cc1 [SB-202190] | > 10
8 | COCC(=O)NC/C=C/c1ccc2ncnc(Nc3ccc(Oc4ccc(C)nc4)c(C)c3)c2c1 [CP-724714] | > 10

Molecular target: T1, Dual specificity mitogen-activated protein kinase kinase 6 (Homo sapiens, UniProt P52564)
T1 sequence (P52564 whole entry): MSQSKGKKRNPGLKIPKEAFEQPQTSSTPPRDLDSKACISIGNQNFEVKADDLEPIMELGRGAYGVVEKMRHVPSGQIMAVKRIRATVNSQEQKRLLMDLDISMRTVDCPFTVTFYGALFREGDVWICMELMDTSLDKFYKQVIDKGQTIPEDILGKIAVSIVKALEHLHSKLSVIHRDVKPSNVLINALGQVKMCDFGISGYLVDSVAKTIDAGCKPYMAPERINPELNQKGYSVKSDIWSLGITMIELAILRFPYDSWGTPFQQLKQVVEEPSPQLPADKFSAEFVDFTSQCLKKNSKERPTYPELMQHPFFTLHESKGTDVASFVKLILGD

Row | SMILES | Kd [µM]
9 | CCOc1cc2ncc(C#N)c(Nc3ccc(F)c(Cl)c3)c2cc1NC(=O)/C=C/CN(C)C [PELITINIB] | > 10
10 | Oc1ccc(-c2nc(-c3ccncc3)c(-c3ccc(F)cc3)[nH]2)cc1 [SB-202190] | > 10
11 | COCC(=O)NC/C=C/c1ccc2ncnc(Nc3ccc(Oc4ccc(C)nc4)c(C)c3)c2c1 [CP-724714] | > 10

Molecular target: Serine/threonine-protein kinase 16 (Homo sapiens, UniProt O75716)
Sequence (O75716 whole entry): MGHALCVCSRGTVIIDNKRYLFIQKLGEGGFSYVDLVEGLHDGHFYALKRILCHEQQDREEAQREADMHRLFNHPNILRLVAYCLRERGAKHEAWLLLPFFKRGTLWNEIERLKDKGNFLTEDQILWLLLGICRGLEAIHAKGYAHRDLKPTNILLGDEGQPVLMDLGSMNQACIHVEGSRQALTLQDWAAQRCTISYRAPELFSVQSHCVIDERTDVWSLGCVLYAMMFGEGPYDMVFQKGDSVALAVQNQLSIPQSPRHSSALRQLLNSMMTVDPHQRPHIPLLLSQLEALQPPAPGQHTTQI

Row | SMILES | Kd [µM]
12 | CCOc1cc2ncc(C#N)c(Nc3ccc(F)c(Cl)c3)c2cc1NC(=O)/C=C/CN(C)C [PELITINIB] | > 10
13 | Oc1ccc(-c2nc(-c3ccncc3)c(-c3ccc(F)cc3)[nH]2)cc1 [SB-202190] | > 10
14 | COCC(=O)NC/C=C/c1ccc2ncnc(Nc3ccc(Oc4ccc(C)nc4)c(C)c3)c2c1 [CP-724714] | > 10

Molecular target: Ribosomal protein S6 kinase alpha-2 (Homo sapiens, UniProt Q15349)
Sequence (Q15349 whole entry): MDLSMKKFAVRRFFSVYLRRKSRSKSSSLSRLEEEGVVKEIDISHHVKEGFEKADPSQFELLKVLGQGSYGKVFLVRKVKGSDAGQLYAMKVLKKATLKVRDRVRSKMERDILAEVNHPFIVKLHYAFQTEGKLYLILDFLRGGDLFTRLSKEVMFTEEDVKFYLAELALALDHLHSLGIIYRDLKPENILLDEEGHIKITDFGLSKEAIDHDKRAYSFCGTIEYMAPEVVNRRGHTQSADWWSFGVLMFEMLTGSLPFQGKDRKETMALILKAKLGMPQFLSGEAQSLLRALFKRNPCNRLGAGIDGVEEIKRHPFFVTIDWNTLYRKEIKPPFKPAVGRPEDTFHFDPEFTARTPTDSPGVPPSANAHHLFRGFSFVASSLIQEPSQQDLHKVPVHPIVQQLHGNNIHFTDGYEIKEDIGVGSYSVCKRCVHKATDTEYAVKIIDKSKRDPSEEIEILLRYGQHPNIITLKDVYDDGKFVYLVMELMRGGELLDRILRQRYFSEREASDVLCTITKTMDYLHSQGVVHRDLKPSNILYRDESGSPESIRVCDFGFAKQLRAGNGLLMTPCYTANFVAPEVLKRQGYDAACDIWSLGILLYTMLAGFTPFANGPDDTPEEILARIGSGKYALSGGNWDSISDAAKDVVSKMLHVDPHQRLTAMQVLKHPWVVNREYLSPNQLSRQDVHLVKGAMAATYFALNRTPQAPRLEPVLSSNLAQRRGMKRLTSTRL

Row | SMILES | Kd [µM]
15 | CCOc1cc2ncc(C#N)c(Nc3ccc(F)c(Cl)c3)c2cc1NC(=O)/C=C/CN(C)C [PELITINIB] | > 10
16 | Oc1ccc(-c2nc(-c3ccncc3)c(-c3ccc(F)cc3)[nH]2)cc1 [SB-202190] | > 10
17 | COCC(=O)NC/C=C/c1ccc2ncnc(Nc3ccc(Oc4ccc(C)nc4)c(C)c3)c2c1 [CP-724714] | > 10

Molecular target: Serine/threonine-protein kinase PLK3 (Homo sapiens, UniProt Q9H4B4)
Sequence (Q9H4B4 whole entry): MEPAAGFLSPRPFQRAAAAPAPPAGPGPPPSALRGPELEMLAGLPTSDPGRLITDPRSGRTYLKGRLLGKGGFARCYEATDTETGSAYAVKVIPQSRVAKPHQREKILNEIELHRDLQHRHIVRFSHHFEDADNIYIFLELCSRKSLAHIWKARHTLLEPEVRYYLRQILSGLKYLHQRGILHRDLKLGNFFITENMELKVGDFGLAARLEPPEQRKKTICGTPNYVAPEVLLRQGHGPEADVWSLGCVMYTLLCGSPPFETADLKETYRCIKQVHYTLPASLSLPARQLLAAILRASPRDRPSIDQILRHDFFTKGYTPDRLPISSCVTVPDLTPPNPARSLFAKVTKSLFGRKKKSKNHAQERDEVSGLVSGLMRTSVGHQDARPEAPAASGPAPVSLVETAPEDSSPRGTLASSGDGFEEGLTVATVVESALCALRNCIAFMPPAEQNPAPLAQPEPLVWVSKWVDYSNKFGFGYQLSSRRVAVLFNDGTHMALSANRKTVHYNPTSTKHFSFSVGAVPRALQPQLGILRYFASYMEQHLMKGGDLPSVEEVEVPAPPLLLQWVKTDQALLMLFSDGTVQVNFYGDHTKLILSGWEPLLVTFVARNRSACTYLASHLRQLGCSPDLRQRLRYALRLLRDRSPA

Row | SMILES | Kd [µM]
18 | CCOc1cc2ncc(C#N)c(Nc3ccc(F)c(Cl)c3)c2cc1NC(=O)/C=C/CN(C)C [PELITINIB] | > 10
19 | Oc1ccc(-c2nc(-c3ccncc3)c(-c3ccc(F)cc3)[nH]2)cc1 [SB-202190] | > 10
20 | COCC(=O)NC/C=C/c1ccc2ncnc(Nc3ccc(Oc4ccc(C)nc4)c(C)c3)c2c1 [CP-724714] | > 10

Molecular target: Focal adhesion kinase 1 (Homo sapiens, UniProt Q05397)

Row | SMILES | Kd [µM]
21 | Oc1ccc(-c2nc(-c3ccncc3)c(-c3ccc(F)cc3)[nH]2)cc1 [SB-202190] | > 10
22 | COCC(=O)NC/C=C/c1ccc2ncnc(Nc3ccc(Oc4ccc(C)nc4)c(C)c3)c2c1 [CP-724714] | > 10

Molecular target: T2, cAMP-dependent protein kinase catalytic subunit PRKX (Homo sapiens, UniProt P51817)
T2 sequence (P51817 whole entry): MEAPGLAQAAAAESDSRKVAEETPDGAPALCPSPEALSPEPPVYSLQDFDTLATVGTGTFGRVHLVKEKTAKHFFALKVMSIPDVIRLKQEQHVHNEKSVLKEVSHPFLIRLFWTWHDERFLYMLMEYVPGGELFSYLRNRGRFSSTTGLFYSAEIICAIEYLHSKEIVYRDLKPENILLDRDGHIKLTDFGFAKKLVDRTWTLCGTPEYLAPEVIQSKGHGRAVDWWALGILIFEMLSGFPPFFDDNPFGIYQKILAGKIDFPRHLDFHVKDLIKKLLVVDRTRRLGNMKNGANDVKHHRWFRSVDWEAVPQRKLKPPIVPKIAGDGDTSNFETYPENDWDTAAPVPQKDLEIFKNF

Row | SMILES | Kd [µM]
23 | CCOc1cc2ncc(C#N)c(Nc3ccc(F)c(Cl)c3)c2cc1NC(=O)/C=C/CN(C)C [PELITINIB] | > 10
24 | Oc1ccc(-c2nc(-c3ccncc3)c(-c3ccc(F)cc3)[nH]2)cc1 [SB-202190] | > 10
25 | COCC(=O)NC/C=C/c1ccc2ncnc(Nc3ccc(Oc4ccc(C)nc4)c(C)c3)c2c1 [CP-724714] | > 10

Molecular target: Protein-tyrosine kinase 2-beta (Homo sapiens, UniProt Q14289)

Row | SMILES | Kd [µM]
26 | CCOc1cc2ncc(C#N)c(Nc3ccc(F)c(Cl)c3)c2cc1NC(=O)/C=C/CN(C)C [PELITINIB] | > 10
27 | Oc1ccc(-c2nc(-c3ccncc3)c(-c3ccc(F)cc3)[nH]2)cc1 [SB-202190] | > 10
28 | COCC(=O)NC/C=C/c1ccc2ncnc(Nc3ccc(Oc4ccc(C)nc4)c(C)c3)c2c1 [CP-724714] | > 10

Molecular target: Insulin receptor-related protein (Homo sapiens, UniProt P14616)
Sequence (P14616 27-742 limits assumed): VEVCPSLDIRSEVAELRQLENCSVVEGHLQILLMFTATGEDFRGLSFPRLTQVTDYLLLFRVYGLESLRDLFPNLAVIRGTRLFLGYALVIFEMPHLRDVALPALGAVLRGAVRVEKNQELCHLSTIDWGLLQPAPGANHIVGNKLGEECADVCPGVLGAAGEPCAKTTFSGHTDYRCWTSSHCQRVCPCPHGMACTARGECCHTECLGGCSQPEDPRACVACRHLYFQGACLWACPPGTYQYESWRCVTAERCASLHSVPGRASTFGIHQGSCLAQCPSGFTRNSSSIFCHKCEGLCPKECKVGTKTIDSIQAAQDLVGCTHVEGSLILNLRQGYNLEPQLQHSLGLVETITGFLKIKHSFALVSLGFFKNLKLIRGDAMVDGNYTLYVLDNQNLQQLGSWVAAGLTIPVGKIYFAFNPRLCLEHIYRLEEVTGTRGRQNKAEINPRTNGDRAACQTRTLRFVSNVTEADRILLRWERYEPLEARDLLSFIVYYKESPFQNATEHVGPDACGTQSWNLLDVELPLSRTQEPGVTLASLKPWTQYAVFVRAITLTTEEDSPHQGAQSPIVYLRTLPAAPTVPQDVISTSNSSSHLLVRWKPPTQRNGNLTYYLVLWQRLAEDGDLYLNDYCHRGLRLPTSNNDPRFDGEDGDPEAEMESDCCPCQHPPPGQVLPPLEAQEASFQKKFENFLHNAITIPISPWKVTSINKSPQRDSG
Sequence (P14616 747-1297 limits assumed): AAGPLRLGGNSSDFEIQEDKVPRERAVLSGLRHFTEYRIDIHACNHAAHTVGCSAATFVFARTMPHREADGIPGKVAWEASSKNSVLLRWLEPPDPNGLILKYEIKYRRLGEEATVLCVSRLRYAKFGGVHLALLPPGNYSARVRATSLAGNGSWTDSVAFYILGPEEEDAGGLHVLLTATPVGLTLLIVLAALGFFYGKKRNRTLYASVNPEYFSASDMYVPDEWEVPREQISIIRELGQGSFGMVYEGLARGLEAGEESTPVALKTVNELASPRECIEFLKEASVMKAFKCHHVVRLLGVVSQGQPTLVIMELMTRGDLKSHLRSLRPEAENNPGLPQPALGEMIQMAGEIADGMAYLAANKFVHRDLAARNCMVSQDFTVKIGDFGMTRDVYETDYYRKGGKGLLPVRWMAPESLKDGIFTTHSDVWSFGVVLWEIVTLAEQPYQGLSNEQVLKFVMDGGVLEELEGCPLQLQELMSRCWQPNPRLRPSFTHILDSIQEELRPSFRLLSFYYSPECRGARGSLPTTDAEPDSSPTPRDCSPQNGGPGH

Row | SMILES | Kd [µM]
29 | CCOc1cc2ncc(C#N)c(Nc3ccc(F)c(Cl)c3)c2cc1NC(=O)/C=C/CN(C)C [PELITINIB] | > 10
30 | Oc1ccc(-c2nc(-c3ccncc3)c(-c3ccc(F)cc3)[nH]2)cc1 [SB-202190] | > 10
31 | COCC(=O)NC/C=C/c1ccc2ncnc(Nc3ccc(Oc4ccc(C)nc4)c(C)c3)c2c1 [CP-724714] | > 10

Molecular target: T3, Serine/threonine-protein kinase RIO3 (Homo sapiens, UniProt O14730)
T3 sequence (O14730 whole entry): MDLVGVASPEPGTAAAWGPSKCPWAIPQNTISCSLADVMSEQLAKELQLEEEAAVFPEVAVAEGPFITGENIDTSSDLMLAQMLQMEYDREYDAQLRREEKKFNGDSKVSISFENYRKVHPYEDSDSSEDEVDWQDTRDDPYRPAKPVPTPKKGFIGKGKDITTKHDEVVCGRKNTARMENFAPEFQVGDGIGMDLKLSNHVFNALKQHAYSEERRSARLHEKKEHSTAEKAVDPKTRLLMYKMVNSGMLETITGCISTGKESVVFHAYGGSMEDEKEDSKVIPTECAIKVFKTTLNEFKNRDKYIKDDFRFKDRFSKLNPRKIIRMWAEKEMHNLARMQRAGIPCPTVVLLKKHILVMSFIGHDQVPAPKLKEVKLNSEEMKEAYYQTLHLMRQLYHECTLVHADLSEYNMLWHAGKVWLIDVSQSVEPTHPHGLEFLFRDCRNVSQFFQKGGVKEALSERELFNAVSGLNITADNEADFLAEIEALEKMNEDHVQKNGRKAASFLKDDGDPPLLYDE

Row | SMILES | Kd [µM]
32 | CCOc1cc2ncc(C#N)c(Nc3ccc(F)c(Cl)c3)c2cc1NC(=O)/C=C/CN(C)C [PELITINIB] | > 10
33 | Oc1ccc(-c2nc(-c3ccncc3)c(-c3ccc(F)cc3)[nH]2)cc1 [SB-202190] | > 10
34 | COCC(=O)NC/C=C/c1ccc2ncnc(Nc3ccc(Oc4ccc(C)nc4)c(C)c3)c2c1 [CP-724714] | > 10

Molecular target: Serine/threonine-protein kinase 32B (Homo sapiens, UniProt Q9NY57)

Row | SMILES | Kd [µM]
35 | CCOc1cc2ncc(C#N)c(Nc3ccc(F)c(Cl)c3)c2cc1NC(=O)/C=C/CN(C)C [PELITINIB] | 6
36 | Oc1ccc(-c2nc(-c3ccncc3)c(-c3ccc(F)cc3)[nH]2)cc1 [SB-202190] | 4.9
37 | COCC(=O)NC/C=C/c1ccc2ncnc(Nc3ccc(Oc4ccc(C)nc4)c(C)c3)c2c1 [CP-724714] | > 10

Molecular target: T4, Serine/threonine-protein kinase Nek5 (Homo sapiens, UniProt Q6P3R8)
T4 sequence (Q6P3R8 whole entry): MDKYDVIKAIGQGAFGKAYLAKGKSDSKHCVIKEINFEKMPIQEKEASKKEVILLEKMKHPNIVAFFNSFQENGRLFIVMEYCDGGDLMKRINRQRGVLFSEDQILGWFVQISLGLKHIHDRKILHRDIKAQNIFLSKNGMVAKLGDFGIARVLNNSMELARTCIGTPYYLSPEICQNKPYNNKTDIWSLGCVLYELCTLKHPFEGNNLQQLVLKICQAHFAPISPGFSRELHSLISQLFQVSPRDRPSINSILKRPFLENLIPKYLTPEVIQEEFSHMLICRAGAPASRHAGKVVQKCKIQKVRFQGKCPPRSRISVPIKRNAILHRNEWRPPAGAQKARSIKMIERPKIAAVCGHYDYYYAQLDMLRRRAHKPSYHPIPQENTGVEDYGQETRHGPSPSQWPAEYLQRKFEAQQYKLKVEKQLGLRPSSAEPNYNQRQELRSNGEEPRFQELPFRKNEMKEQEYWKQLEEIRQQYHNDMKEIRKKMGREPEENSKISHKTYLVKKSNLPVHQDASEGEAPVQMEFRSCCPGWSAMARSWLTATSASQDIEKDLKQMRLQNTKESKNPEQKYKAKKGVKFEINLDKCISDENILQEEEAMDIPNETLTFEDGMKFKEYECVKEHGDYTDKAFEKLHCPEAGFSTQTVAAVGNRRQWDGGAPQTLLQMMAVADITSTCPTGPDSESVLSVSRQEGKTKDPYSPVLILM

Row | SMILES | Kd [µM]
38 | CCOc1cc2ncc(C#N)c(Nc3ccc(F)c(Cl)c3)c2cc1NC(=O)/C=C/CN(C)C [PELITINIB] | > 10
39 | Oc1ccc(-c2nc(-c3ccncc3)c(-c3ccc(F)cc3)[nH]2)cc1 [SB-202190] | > 10
40 | COCC(=O)NC/C=C/c1ccc2ncnc(Nc3ccc(Oc4ccc(C)nc4)c(C)c3)c2c1 [CP-724714] | > 10

Molecular target: RAF proto-oncogene serine/threonine-protein kinase (Homo sapiens, UniProt P04049)

Row | SMILES | Kd [µM]
41 | CCOc1cc2ncc(C#N)c(Nc3ccc(F)c(Cl)c3)c2cc1NC(=O)/C=C/CN(C)C [PELITINIB] | > 10
42 | COCC(=O)NC/C=C/c1ccc2ncnc(Nc3ccc(Oc4ccc(C)nc4)c(C)c3)c2c1 [CP-724714] | > 10

Molecular target: Receptor-type tyrosine-protein kinase FLT3 (Homo sapiens, UniProt P36888, ITD)

Row | SMILES | Kd [µM]
43 | CCOc1cc2ncc(C#N)c(Nc3ccc(F)c(Cl)c3)c2cc1NC(=O)/C=C/CN(C)C [PELITINIB] | > 10
44 | Oc1ccc(-c2nc(-c3ccncc3)c(-c3ccc(F)cc3)[nH]2)cc1 [SB-202190] | > 10
45 | COCC(=O)NC/C=C/c1ccc2ncnc(Nc3ccc(Oc4ccc(C)nc4)c(C)c3)c2c1 [CP-724714] | > 10

Molecular target: MAP/microtubule affinity-regulating kinase 3 (Homo sapiens, UniProt P27448)
Sequence (P27448 whole entry): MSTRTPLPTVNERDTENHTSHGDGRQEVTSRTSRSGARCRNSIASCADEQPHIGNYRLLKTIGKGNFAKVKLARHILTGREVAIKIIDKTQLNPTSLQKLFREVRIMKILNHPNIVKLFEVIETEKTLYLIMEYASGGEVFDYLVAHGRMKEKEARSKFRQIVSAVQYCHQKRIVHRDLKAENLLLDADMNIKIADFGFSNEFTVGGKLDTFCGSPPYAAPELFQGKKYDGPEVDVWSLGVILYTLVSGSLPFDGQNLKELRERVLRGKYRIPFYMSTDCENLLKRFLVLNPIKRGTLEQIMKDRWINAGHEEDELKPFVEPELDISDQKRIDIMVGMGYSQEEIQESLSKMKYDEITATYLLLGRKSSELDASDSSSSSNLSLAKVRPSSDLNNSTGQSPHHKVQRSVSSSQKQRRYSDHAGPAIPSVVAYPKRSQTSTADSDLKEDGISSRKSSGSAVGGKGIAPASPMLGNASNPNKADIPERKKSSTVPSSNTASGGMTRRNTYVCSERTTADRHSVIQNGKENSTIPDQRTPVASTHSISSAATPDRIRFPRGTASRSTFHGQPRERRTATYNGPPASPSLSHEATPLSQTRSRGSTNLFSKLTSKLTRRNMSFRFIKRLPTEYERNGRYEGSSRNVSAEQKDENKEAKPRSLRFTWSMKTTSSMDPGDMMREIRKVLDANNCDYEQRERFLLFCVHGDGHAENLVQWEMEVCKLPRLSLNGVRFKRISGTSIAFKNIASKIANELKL

Row | SMILES | Kd [µM]
46 | CCOc1cc2ncc(C#N)c(Nc3ccc(F)c(Cl)c3)c2cc1NC(=O)/C=C/CN(C)C [PELITINIB] | > 10
47 | Oc1ccc(-c2nc(-c3ccncc3)c(-c3ccc(F)cc3)[nH]2)cc1 [SB-202190] | > 10
48 | COCC(=O)NC/C=C/c1ccc2ncnc(Nc3ccc(Oc4ccc(C)nc4)c(C)c3)c2c1 [CP-724714] | > 10

Molecular target: MAP kinase-interacting serine/threonine-protein kinase 1 (Homo sapiens, UniProt Q9BUB5)
Sequence (Q9BUB5 whole entry): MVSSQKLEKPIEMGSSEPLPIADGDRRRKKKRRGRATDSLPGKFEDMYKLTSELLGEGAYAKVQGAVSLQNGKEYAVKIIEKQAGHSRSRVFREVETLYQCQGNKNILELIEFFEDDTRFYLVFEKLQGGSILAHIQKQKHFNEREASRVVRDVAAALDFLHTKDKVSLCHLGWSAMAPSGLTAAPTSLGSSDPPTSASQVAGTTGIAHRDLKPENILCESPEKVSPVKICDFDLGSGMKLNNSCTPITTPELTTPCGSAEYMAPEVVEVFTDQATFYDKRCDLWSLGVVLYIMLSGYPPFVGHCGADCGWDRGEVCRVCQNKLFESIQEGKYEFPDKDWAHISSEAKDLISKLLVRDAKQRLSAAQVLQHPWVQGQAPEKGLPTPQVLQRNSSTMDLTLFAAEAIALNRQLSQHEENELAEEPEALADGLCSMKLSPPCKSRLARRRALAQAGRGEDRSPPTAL

Row | SMILES | Kd [µM]
49 | CCOc1cc2ncc(C#N)c(Nc3ccc(F)c(Cl)c3)c2cc1NC(=O)/C=C/CN(C)C [PELITINIB] | > 10
50 | Oc1ccc(-c2nc(-c3ccncc3)c(-c3ccc(F)cc3)[nH]2)cc1 [SB-202190] | > 10
51 | COCC(=O)NC/C=C/c1ccc2ncnc(Nc3ccc(Oc4ccc(C)nc4)c(C)c3)c2c1 [CP-724714] | > 10

Molecular target: Serine/threonine-protein kinase 26 (Homo sapiens, UniProt Q9P289)

Row | SMILES | Kd [µM]
52 | CCOc1cc2ncc(C#N)c(Nc3ccc(F)c(Cl)c3)c2cc1NC(=O)/C=C/CN(C)C [PELITINIB] | > 10
53 | Oc1ccc(-c2nc(-c3ccncc3)c(-c3ccc(F)cc3)[nH]2)cc1 [SB-202190] | > 10
54 | COCC(=O)NC/C=C/c1ccc2ncnc(Nc3ccc(Oc4ccc(C)nc4)c(C)c3)c2c1 [CP-724714] | > 10
